Data published in PubChem BioAssay AID1259407 (Chemical Carcinogenesis Research Information System (CCRIS), 2018).
Activity calls are given as the source filed them. The rule behind the calls is not given here.

Test system: CCRIS mutagenicity, Ames/micronucleus/aberration tests
Test: CCRIS mutagenicity studies
[1] = Test System: AMES SALMONELLA TYPHIMURIUM, Strain/Indicator: TA100, Metabolic Activation: RAT, LIVER, S-9, AROCLOR 1254, Method: STANDARD PLATE

## Nc1ccc(Cc2ccc(N)cc2)cc1
End Point: IN VIVO MICRONUCLEUS, Test System: PERIPHERAL BLOOD RETICULOCYTES, Species: RAT, Strain/Sex: FISHER 344 OR SD/MALE, Route: ORAL OR IP
  mutagenic call: inactive; negative
Test System: AMES SALMONELLA TYPHIMURIUM, Strain/Indicator: TA97, Metabolic Activation: HAMSTER, LIVER, S-9, AROCLOR 1254 (10%), Method: PREINCUBATION
  mutagenic call: active; positive
Test System: AMES SALMONELLA TYPHIMURIUM, Strain/Indicator: TA97, Metabolic Activation: NONE, Method: PREINCUBATION
  mutagenic call: inactive; negative
Test System: AMES SALMONELLA TYPHIMURIUM, Strain/Indicator: TA98, Metabolic Activation: HAMSTER, LIVER, S-9, AROCLOR 1254 (10%), Method: PREINCUBATION
  mutagenic call: active; positive
Test System: AMES SALMONELLA TYPHIMURIUM, Strain/Indicator: TA98, Metabolic Activation: NONE, Method: PREINCUBATION
  mutagenic call: inactive; negative
Test System: AMES SALMONELLA TYPHIMURIUM, Strain/Indicator: TA98, Metabolic Activation: NONE, Method: STANDARD PLATE
  mutagenic call: inactive; negative
Test System: AMES SALMONELLA TYPHIMURIUM, Strain/Indicator: TA98, Metabolic Activation: RAT, LIVER, S-9, AROCLOR 1254, Method: STANDARD PLATE
  mutagenic call: active; positive
Test System: AMES SALMONELLA TYPHIMURIUM, Strain/Indicator: TA98, Metabolic Activation: RAT, LIVER, S-9, PCB, Method: PREINCUBATION
  mutagenic call: active; positive
Test System: AMES SALMONELLA TYPHIMURIUM, Strain/Indicator: TA98, Metabolic Activation: RAT, LIVER, S-9, PCB, Method: STANDARD PLATE
  mutagenic call: active; positive
Test System: AMES SALMONELLA TYPHIMURIUM, Strain/Indicator: TA98, Metabolic Activation: RAT, LIVER, S-9, PHENOBARBITAL, Method: PREINCUBATION
  mutagenic call: inactive; negative
Test System: AMES SALMONELLA TYPHIMURIUM, Strain/Indicator: TA100, Metabolic Activation: HAMSTER, LIVER, S-9, AROCLOR 1254 (10%), Method: PREINCUBATION
  mutagenic call: active; positive
Test System: AMES SALMONELLA TYPHIMURIUM, Strain/Indicator: TA100, Metabolic Activation: NONE, Method: PREINCUBATION
  mutagenic call: inactive; negative
Test System: AMES SALMONELLA TYPHIMURIUM, Strain/Indicator: TA100, Metabolic Activation: NONE, Method: STANDARD PLATE
  mutagenic call: inactive; negative
Test System: AMES SALMONELLA TYPHIMURIUM, Strain/Indicator: TA100, Metabolic Activation: RAT, LIVER, S-9, AROCLOR 1254 (10%), Method: PREINCUBATION
  mutagenic call: active; positive
[1]
  mutagenic call: active; positive
Test System: AMES SALMONELLA TYPHIMURIUM, Strain/Indicator: TA100, Metabolic Activation: RAT, LIVER, S-9, PCB, Method: PREINCUBATION
  mutagenic call: active; positive
Test System: AMES SALMONELLA TYPHIMURIUM, Strain/Indicator: TA100, Metabolic Activation: RAT, LIVER, S-9, PCB, Method: STANDARD PLATE
  mutagenic call: active; positive
Test System: AMES SALMONELLA TYPHIMURIUM, Strain/Indicator: TA100, Metabolic Activation: RAT, LIVER, S-9, PHENOBARBITAL, Method: PREINCUBATION
  mutagenic call: active; positive
Test System: AMES SALMONELLA TYPHIMURIUM, Strain/Indicator: TA1535, Metabolic Activation: HAMSTER, LIVER, S-9, AROCLOR 1254 (5 OR 30%), Method: PREINCUBATION
  mutagenic call: active; positive
Test System: AMES SALMONELLA TYPHIMURIUM, Strain/Indicator: TA1535, Metabolic Activation: HAMSTER, LIVER, S-9, AROCLOR 1254 (10%), Method: PREINCUBATION
  mutagenic call: active; positive
Test System: AMES SALMONELLA TYPHIMURIUM, Strain/Indicator: TA1535, Metabolic Activation: NONE, Method: PREINCUBATION
  mutagenic call: inactive; negative
Test System: AMES SALMONELLA TYPHIMURIUM, Strain/Indicator: TA1535, Metabolic Activation: RAT, LIVER, S-9, AROCLOR 1254 (10%), Method: PREINCUBATION
  mutagenic call: inactive; negative
Test System: E. COLI, Strain/Indicator: WP2 UVRA, Metabolic Activation: HAMSTER, LIVER, S-9, AROCLOR 1254, Method: STANDARD PLATE
  mutagenic call: inactive; negative
Test System: E. COLI, Strain/Indicator: WP2 UVRA, Metabolic Activation: HAMSTER, LIVER, S-9, Method: STANDARD PLATE
  mutagenic call: inactive; negative
Test System: E. COLI, Strain/Indicator: WP2 UVRA, Metabolic Activation: MOUSE, LIVER, S-9, AROCLOR 1254, Method: STANDARD PLATE
  mutagenic call: inactive; negative
Test System: E. COLI, Strain/Indicator: WP2 UVRA, Metabolic Activation: MOUSE, LIVER, S-9, Method: STANDARD PLATE
  mutagenic call: inactive; negative
Test System: E. COLI, Strain/Indicator: WP2 UVRA, Metabolic Activation: NONE, Method: STANDARD PLATE
  mutagenic call: inactive; negative
Test System: E. COLI, Strain/Indicator: WP2 UVRA, Metabolic Activation: RAT, LIVER, S-9, AROCLOR 1254, Method: STANDARD PLATE
  mutagenic call: inactive; negative
Test System: E. COLI, Strain/Indicator: WP2 UVRA, Metabolic Activation: RAT, LIVER, S-9, Method: STANDARD PLATE
  mutagenic call: inactive; negative
Test System: UDS RAT HEPATOCYTES, Strain/Indicator: BROMODEOXYURIDINE INCORP, Metabolic Activation: NONE, Method: FLOW CYTOMETRIC ANALYSIS
  mutagenic call: inactive; negative
Test System: UDS RAT HEPATOCYTES, Strain/Indicator: THY INCORP, Metabolic Activation: NONE, Method: AUTORADIOGRAPHY
  mutagenic call: inactive; negative

## Cc1ccc2nc3c(ccc4ccccc43)c(CO)c2c1
[1]
  mutagenic call: active; positive
